From article PMC7942396, “Drug Repurposing Screen for Compounds Inhibiting the Cytopathic Effect of SARS-CoV-2” (Frontiers in Pharmacology, 2021)
Where a name gives a salt, the structure may show the parent alone. Read-outs that look alike come from different tables or passages of the source. Where a SMILES comes first, the peptide text is derived from it. The star is where a group is joined. Cbz = O=C(OCc1ccccc1)*; CH2Cl = ClC*

Columns and labels:
[1] = system: SARS-CoV-2 (USA_WA1/2020); assay: microbe, parasite or virus in culture; format: cell-based; details: for EC50: read-out: CPE EC50
Vero E6 cells = Vero E6 cells without virus; for CC50: read-out: Cytotox CC50
[2] = SARS-CoV-2 CPE assay, Vero E6 cells, efficacy
[3] = SARS-CoV-2 CPE assay, Vero E6 cells
[4] = SARS-CoV-2 CPE assay, Vero E6 cells, confirmed anti-SARS-CoV-2 compounds
[5] = […], DMSO 0%, no-virus control 100%, hit confirmation

## CN1CCN(S(=O)(=O)c2ccc(-c3cnc(N)c(C(=O)Nc4cccnc4)n3)cc2)CC1 [AZD-2858]
[1]; [2]
  CPE % Efficacy: 80.0%
Vero E6 cells; cytotoxicity counter-assay
  % Cytotox: 41.0%
  CC50: 12.6 µM

## O=S(=O)(c1cccc2c(Cl)cccc12)N1CCCNCC1 [ML-9]
[1]; [3]
  CPE % Efficacy: 91.0%
  EC50: 12.6 µM
Vero E6 cells; cytotoxicity counter-assay
  % Cytotox: 23.3%
  CC50: 11.2 µM

## COC(=O)CC[C@@H](C)[C@H]1CC[C@H]2[C@@H]3CC[C@@H]4C[C@H](OC(C)=O)CC[C@]4(C)[C@H]3C[C@H](O)[C@]12C (racemic)
[1]; [3]
  CPE % Efficacy: 62.5%
  EC50: 12.6 µM
Vero E6 cells; cytotoxicity counter-assay
  % Cytotox: 0.0%

## CC(C)c1ccc(NC(=O)C(c2ccccc2)N(C)C(=O)Cc2c[nH]c3ccccc23)cc1 (centres unmarked) [PG-01]
[1]; [4]
  EC50: 3.55 µM
[1]; [2]
  CPE % Efficacy: 98.0%
Vero E6 cells; cytotoxicity counter-assay
  % Cytotox: 110.5%

## C=C1C(=O)O[C@H]2C3=C(C)CCC[C@]3(C)C(=O)C[C@@H]12 [NCGC00168931]
[1]; [4]
  EC50: 2.24 µM
[1]; [2]
  CPE % Efficacy: 40.6%
Vero E6 cells; cytotoxicity counter-assay
  % Cytotox: 69.6%
  CC50: 10 µM

## CO[C@@H]1[C@@H](O[C@@H]2O[C@H](C)[C@@H](O[C@H]3C[C@@](C)(O)[C@@H](O)[C@H](C)O3)[C@H](N(C)C)[C@H]2O)[C@@H](CC=O)C[C@@H](C)[C@@H](O[C@H]2CC[C@H](N(C)C)[C@@H](C)O2)/C=C/C=C/C[C@@H](C)OC(=O)C[C@H]1OC(C)=O [Spiramycin II]
[1]; [3]
  CPE % Efficacy: 33.4%
  EC50: 14.1 µM
Vero E6 cells; cytotoxicity counter-assay
  % Cytotox: 0.0%

## CCCCNc1ncc2c(-c3ccc(F)cc3)nn(CC3CCC(N)CC3)c2n1 (centres unmarked) [UNC-569]
[1]; [4]
  EC50: 9.82 µM
[1]; [2]
  CPE % Efficacy: 46.0%
Vero E6 cells; cytotoxicity counter-assay
  % Cytotox: 34.2%
  CC50: 4.92 µM

## CCOC(=O)N[C@@H]1CC[C@@H]2[C@@H](C1)C[C@H]1C(=O)O[C@H](C)[C@H]1[C@H]2/C=C/c1ccc(-c2cccc(F)c2)cn1.O=S(=O)(O)O [Vorapaxar Sulfate]
[1]; [4]
  EC50: 4.47 µM
[1]; [2]
  CPE % Efficacy: 57.7%
Vero E6 cells; cytotoxicity counter-assay
  % Cytotox: 32.4%
  CC50: 12.6 µM

## CS(=O)(=O)O.Cc1ncc(NC(=O)c2ccc(CN3CCN(C)CC3)c(C(F)(F)F)c2)cc1Nc1nccc(-c2cccnc2)n1 [Flumatinib mesylate]
[1]; [3]
  CPE % Efficacy: 134.3%
  EC50: 12.6 µM
Vero E6 cells; cytotoxicity counter-assay
  % Cytotox: 11.1%
  CC50: 4.47 µM

## COc1cccc(-n2c(=O)[nH]c3cc(Cl)n(-c4ccc(-c5cccc(OC)c5O)cc4)c3c2=O)c1 [GSK621]
[1]; [4]
  EC50: 11.2 µM
[1]; [2]
  CPE % Efficacy: 77.9%
Vero E6 cells; cytotoxicity counter-assay
  % Cytotox: 58.4%

## GSK 9027
[1]; [3]
  CPE % Efficacy: 104.1%
  EC50: 12.6 µM
Vero E6 cells; cytotoxicity counter-assay
  % Cytotox: 24.3%

## CC(C)c1cccc2c(-c3ccccc3)cc(-c3ccc(-c4ccc(C(=O)O)cc4)[nH]3)nc12 [ER 50891]
[1]; [4]
  EC50: 11.2 µM
[1]; [2]
  CPE % Efficacy: 88.0%
Vero E6 cells; cytotoxicity counter-assay
  % Cytotox: 16.9%
  CC50: 15.8 µM

## C/C=C(/C)C(=O)O[C@H]1[C@@H]2[C@H](C)C(=O)O[C@@H]2C[C@@H](C)[C@@H]2C=CC(=O)[C@]21C [Brevelin A]
[1]; [4]
  EC50: 3.55 µM
[1]; [2]
  CPE % Efficacy: 61.5%
Vero E6 cells; cytotoxicity counter-assay
  % Cytotox: 59.7%
  CC50: 11.2 µM

## Cc1nc(C)c(CN2CCN(C(c3ccc(F)cc3)c3ccc(F)cc3)CC2)nc1C [CXC-195]
[1]; [3]
  CPE % Efficacy: 32.4%
  EC50: 12.6 µM
Vero E6 cells; cytotoxicity counter-assay
  % Cytotox: 0.0%

## Cc1cc(C)c(CNC(=O)c2cc(-c3ccc(N4CCN(C)CC4)nc3)cc3c2c(C)cn3C(C)C)c(=O)[nH]1 [GSK-503?EZH2 inhibitor]
[1]; [3]
  CPE % Efficacy: 111.9%
  EC50: 12.6 µM
Vero E6 cells; cytotoxicity counter-assay
  % Cytotox: 0.0%

## (-)-Indolactam V
[1]; [4]
  EC50: 1.56 µM
[1]; [2]
  CPE % Efficacy: 74.4%
Vero E6 cells; cytotoxicity counter-assay
  % Cytotox: 20.4%
  CC50: 1.24 µM

## COc1cc2c(Nc3ccc(NC(=O)c4ccccc4)cc3)ncnc2cc1OCCCN1CCOCC1 [ZM-447439]
[1]; [3]
  CPE % Efficacy: 49.6%
  EC50: 14.1 µM
Vero E6 cells; cytotoxicity counter-assay
  % Cytotox: 38.3%
  CC50: 12.6 µM

## NC(=O)c1ccc2nc(-c3ccc(Oc4ccc(Cl)cc4)cc3)[nH]c2c1 [BML-277]
[1]; [2]
  CPE % Efficacy: 73.6%
Vero E6 cells; cytotoxicity counter-assay
  % Cytotox: 33.9%

## COc1ccc(-c2cc(C(O)C3CCCCN3)c3ccccc3n2)cc1.Cl.Cl (centres unmarked) [NSC-23925]
[1]; [4]
  EC50: 5.62 µM
[1]; [2]
  CPE % Efficacy: 40.3%
Vero E6 cells; cytotoxicity counter-assay
  % Cytotox: 49.3%
  CC50: 10 µM

## O=S(=O)(c1cccc2c(I)cccc12)N1CCCNCC1 [ML-7]
[1]; [3]
  CPE % Efficacy: 36.2%
  EC50: 12.6 µM
Vero E6 cells; cytotoxicity counter-assay
  % Cytotox: 20.3%
  CC50: 19.9 µM

## CC(C)(C)Cn1c(N)nc2ccc(-c3[nH]c(C(C)(C)C)nc3-c3ccc(F)cc3)nc21 [LY-2228820 (ralimetinib)]
[1]; [4]
  EC50: 1.58 µM
[1]; [2]
  CPE % Efficacy: 85.9%
Vero E6 cells; cytotoxicity counter-assay
  % Cytotox: 78.9%
  CC50: 12.6 µM

## CC(=O)O[C@@H]1C[C@H]2C(C)(C)C(=O)C=C[C@]2(C)[C@H]2CC[C@]3(C)C(=CC(=O)O[C@H]3c3ccoc3)[C@@]21C [DEOXYGEDUNIN]
[1]; [4]
  EC50: 11.2 µM
[1]; [2]
  CPE % Efficacy: 107.7%
Vero E6 cells; cytotoxicity counter-assay
  % Cytotox: 0.0%

## Nc1nc2c(c(N3CC[C@@H](N)C3)n1)CCCc1ccccc1-2 [A 943931]
[1]; [4]
  EC50: 11.2 µM
[1]; [2]
  CPE % Efficacy: 104.3%
Vero E6 cells; cytotoxicity counter-assay
  % Cytotox: 34.8%
  CC50: 12.6 µM

## CCCCCCCCC(=O)N[C@H](CN1CCCC1)[C@H](O)c1ccc2c(c1)OCCO2 [Genz-123346 (free base), reference compound]
[1]; [5]
  CPE % Efficacy: 99.4%
[1]
  EC50: 10 µM
Vero E6 cells; 72 h
  % Cytotox: <30%

## COc1cccc2c1CCCC2CCCN1CCN(C2CCCCC2)CC1 (centres unmarked) [PB-28]
[1]; [3]
  CPE % Efficacy: 88.6%
  EC50: 11.2 µM
Vero E6 cells; cytotoxicity counter-assay
  % Cytotox: 19.5%
  CC50: 12.6 µM

## NC(=O)c1ccccc1Nc1ccnc(Nc2cccc(O)c2)n1 [DB-07268]
[1]; [4]
  EC50: 10 µM
[1]; [2]
  CPE % Efficacy: 52.8%
Vero E6 cells; cytotoxicity counter-assay
  % Cytotox: 40.9%
  CC50: 1 µM

## COc1cc2c3cc1Oc1c(OC)c(OC)cc4c1[C@@H](Cc1ccc(O)c(c1)Oc1ccc(cc1)C[C@@H]3N(C)CC2)N(C)CC4 [Berbamine dihydrochloride]
[1]; [4]
  EC50: 2.82 µM
[1]; [2]
  CPE % Efficacy: 79.0%
Vero E6 cells; cytotoxicity counter-assay
  % Cytotox: 50.1%
  CC50: 11.2 µM

## CCN(CC)Cc1cccc(/C=C/c2nc3ccc(F)cc3c(=O)n2-c2ccccc2Cl)n1.Cl [CP 465022 hydrochloride]
[1]; [4]
  EC50: 10 µM
[1]; [2]
  CPE % Efficacy: 77.3%
Vero E6 cells; cytotoxicity counter-assay
  % Cytotox: 47.9%
  CC50: 12.6 µM

## COc1cc2ncnc(Sc3nnc(C)s3)c2cc1OC [SKLB1002]
[1]; [4]
  EC50: 3.55 µM
[1]; [2]
  CPE % Efficacy: 73.0%
Vero E6 cells; cytotoxicity counter-assay
  % Cytotox: 34.8%
  CC50: 7.08 µM

## O=C(NCCCCN1CCN(c2cccc(Cl)c2Cl)CC1)c1cc2ccccc2s1 [FAUC-365]
[1]; [4]
  EC50: 4.47 µM
[1]; [2]
  CPE % Efficacy: 36.5%
Vero E6 cells; cytotoxicity counter-assay
  % Cytotox: 35.5%
  CC50: 12.6 µM

## CC(C)(C)c1ccc(CN2CCN(C(c3ccccc3)c3ccc(Cl)cc3)CC2)cc1.Cl.Cl (centres unmarked) [Buclizine HCl]
[1]; [3]
  CPE % Efficacy: 86.2%
  EC50: 14.1 µM
Vero E6 cells; cytotoxicity counter-assay
  % Cytotox: 0.0%

## COc1ccc(C(C)(C)C)cc1CN[C@H]1C2CCN(CC2)[C@H]1C(c1ccccc1)c1ccccc1 [Maropitant]
[1]; [4]
  EC50: 3.55 µM
[1]; [2]
  CPE % Efficacy: 83.7%
Vero E6 cells; cytotoxicity counter-assay
  % Cytotox: 108.2%

## CC(C)C[C@H](NC(=O)CNC(=O)OCc1ccccc1)C(=O)N[C@@H](Cc1ccccc1)C(=O)CCl [Z-Gly-Leu-Phe-chloromethyl ketone, reference compound] (Cbz-Gly-Leu-Phe-CH2Cl)
[1]; [5]
  CPE % Efficacy: 87.2%
[1]
  EC50: 1.3 µM
Vero E6 cells; 72 h
  % Cytotox: <30%

## C[C@@H]1O[C@@H](O[C@H]2[C@H](OC(=O)[C@]34CCC(C)(C)C[C@H]3C3=CCC5[C@@]6(C)CC[C@H](O[C@@H]7O[C@H](CO[C@@H]8OC[C@H](O)[C@H](O)[C@H]8O)[C@@H](O)[C@H](O)[C@H]7O)C(C)(C)C6CC[C@@]5(C)[C@]3(C)C[C@H]4O)OC[C@@H](O)[C@@H]2O)[C@H](O)[C@H](O[C@@H]2OC[C@](O)(CO)[C@H]2O)[C@H]1O[C@@H]1OC[C@H](O)[C@H](O[C@@H]2OC[C@@H](O)[C@H](O)[C@H]2O)[C@H]1O (some centres unmarked) [NCGC00385743]
[1]; [4]
  EC50: 0.95 µM
[1]; [2]
  CPE % Efficacy: 59.8%
Vero E6 cells; cytotoxicity counter-assay
  % Cytotox: 67.2%
  CC50: 2.14 µM

## Cl.Cl.O=S(=O)(c1cccc2ccccc12)n1ccc2ccc(N3CCN4CCCC4C3)cc21 (centres unmarked) [NPS ALX Compound 4a dihydrochloride]
[1]; [3]
  CPE % Efficacy: 100.0%
  EC50: 12.6 µM
Vero E6 cells; cytotoxicity counter-assay
  % Cytotox: 93.1%
  CC50: 12.6 µM
